# Experimental data: patent US20250161288A1, “MULTIMERIZER PHARMACEUTICAL COMPOSITIONS” (PONCE THERAPEUTICS, INC., priority 2022, published 2025)
# Tests used:
# [1] = assay type: physicochemical
# Description: As such, rimiducid is categorized as a biopharmaceutical classification system (BCS) class IV drug. Although there are exceptions, BCS class IV compounds generally are viewed as poor candidates for oral delivery (Markovic et al., Pharmaceutics 2020, 12(12), 1175. doi.org/10.3390/pharmaceutics12121175). For a compound to be absorbed, it must first be in solution. […] Once solubilized, rimiducid must cross the plasma membranes of the intestinal tract to be absorbed. […] Because of the molecular weight of 1411.6 Da, passive absorption of rimiducid through the intestinal aqueous porin channels is unlikely (Dahlgren et al., Pharmaceutics. 2019; 11(8):411. Published 2019 Aug. 13. doi:10.3390/pharmaceutics11080411).
# [2] = Drug Bank Online; cited from earlier work
# [3] = class IV characterisation, aqueous solubility; cited from earlier work
compound,measurement,setting,value
"CC[C@H](C(=O)N1CCCC[C@H]1C(=O)O[C@H](CCc1ccc(OC)c(OC)c1)c1cccc(OCC(=O)NCCNC(=O)COc2cccc([C@@H](CCc3ccc(OC)c(OC)c3)OC(=O)[C@@H]3CCCCN3C(=O)[C@@H](CC)c3cc(OC)c(OC)c(OC)c3)c2)c1)c1cc(OC)c(OC)c(OC)c1 [Rimiducid, rimiducid]",theoretical maximal solubility of rimiducid within the upper GI tract,[1],less than 250 μg
same,water solubility,[2],less than 0.5 μg/mL
same,volume required to dissolve an effective dose,[3],greater than 250 milliliters
